Laboratory results: US9034897B2, “Indanyl-substituted 4,5,6,7-tetrahydro-1H-pyrazolo[4,3-C]pyridines, their use as medicament, and pharmaceutical preparations comprising them” (SANOFI, priority 2011, dated 2015)

Target: Human TASK-1 channels (Homo sapiens (Human), UniProt O14649)
Assay: Activity on the TASK-1 channel in Xenopus oocytes (two-microelectrode voltage clamp)
Type: cell-based
Details: 5 μM; percentage inhibition of TASK-1 control current, Xenopus oocytes
Description: Determination of the activity on the TASK-1 channel in Xenopus oocytes:
Human TASK-1 channels were expressed in Xenopus oocytes. For this purpose, oocytes were isolated from Xenopus laevis and defolliculated. Subsequently, TASK-1-encoding RNA synthesized in vitro was injected into oocytes. After two days of TASK-1 protein expression, TASK-1 currents were measured by two-microelectrode voltage clamp. Data were acquired and analyzed using a TEC-10cx amplifier (NPI Electronic, Tamm, Germany) connected to an ITC-16 interface (Instrutech Corp., Long Island, USA) and Pulse software (HEKA Elektronik, Lambrecht, Germany). Oocytes were clamped to −90 mV and TASK-1 mediated currents were measured during 500 ms voltage pulses to 40 mV. Oocytes were continuously superfused with ND96 buffer containing: NaCl 96 mM, KCl2 mM, CaCl2 1.8 mM, MgCl2 1 mM, HEPES 5 mM (pH adjusted to 7.4 with NaOH). All experiments were performed at room temperature.
Test substances were consecutively added to the bath solution at rising concentrations. Compound effects were calculated as the percentage inhibition of
TASK-1 control current before compound application. IC50 values were obtained by fitting the data to the general dose-response equation.

Sequence of Human TASK-1 channels (O14649 whole entry): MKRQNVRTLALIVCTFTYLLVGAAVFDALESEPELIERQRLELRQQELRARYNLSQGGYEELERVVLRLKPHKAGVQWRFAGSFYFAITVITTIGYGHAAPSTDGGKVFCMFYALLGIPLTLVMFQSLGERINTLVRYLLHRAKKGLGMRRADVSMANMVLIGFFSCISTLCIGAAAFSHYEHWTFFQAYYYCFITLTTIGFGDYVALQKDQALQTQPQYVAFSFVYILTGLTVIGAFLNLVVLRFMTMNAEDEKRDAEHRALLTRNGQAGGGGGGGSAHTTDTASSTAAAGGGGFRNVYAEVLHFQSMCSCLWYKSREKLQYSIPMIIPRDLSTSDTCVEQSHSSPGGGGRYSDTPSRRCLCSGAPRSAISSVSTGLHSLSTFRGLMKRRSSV

inhibition at 5 µM | SMILES
91% | N#Cc1cccc(-c2nn([C@@H]3c4cc(F)cc(F)c4C[C@H]3O)c3c2CN(CCC(F)(F)F)CC3)c1 [Example 18c, 3-[1-((1R,2R)-4,6-Difluoro-2-hydroxy-indan-1-yl)-5-(3,3,3-trifluoro-propyl)-4,5,6,7-tetrahydro-1H-pyrazolo[4,3-c]pyridin-3-yl]-benzonitrile]
82% | CCc1cc(F)cc2c1C[C@@H](O)[C@@H]2n1nc(-c2cccc(C#N)c2)c2c1CCN(C(C)=O)C2 [Example 19b, 3-[5-Acetyl-1-((1R,2R)-4-ethyl-6-fluoro-2-hydroxy-indan-1-yl)-4,5,6,7-tetrahydro-1H-pyrazolo[4,3-c]pyridin-3-yl]-benzonitrile]
94% | CC(C)(C)C(=O)N1CCc2c(c(-c3cccc(C#N)c3)nn2[C@@H]2c3cc(F)cc(F)c3C[C@H]2O)C1 [Example 14d, 3-[1-((1R,2R)-4,6-Difluoro-2-hydroxy-indan-1-yl)-5-(2,2-dimethyl-propionyl)-4,5,6,7-tetrahydro-1H-pyrazolo[4,3-c]pyridin-3-yl]-benzonitrile]
24% | NC(=O)c1cccc(-c2nn([C@@H]3c4cc(F)cc(F)c4C[C@H]3O)c3c2CN(C(=O)C2CC2)CC3)c1 [Example 15b, 3-[5-Cyclopropanecarbonyl-1-((1R,2R)-4,6-difluoro-2-hydroxy-indan-1-yl)-4,5,6,7-tetrahydro-1H-pyrazolo[4,3-c]pyridin-3-yl]-benzamide]

Same assay, conditions: human TASK-1 expressed in Xenopus oocytes, currents during 500 ms pulses to 40 mV, room temperature

IC50 | SMILES
0.393 µM | CC(=O)N1CCc2c(c(-c3cccc(C#N)c3)nn2[C@@H]2c3cc(F)cc(Cl)c3C[C@H]2O)C1 [Example 21a, 3-[5-Acetyl-1-((1R,2R)-4-chloro-6-fluoro-2-hydroxy-indan-1-yl)-4,5,6,7-tetrahydro-1H-pyrazolo[4,3-c]pyridin-3-yl]-benzonitrile]
0.231 µM | CC(=O)N1CCc2c(c(-c3cccc(C#N)c3)nn2[C@@H]2c3cc(F)cc(C)c3C[C@H]2O)C1 [Example 19a, 3-[5-Acetyl-1-((1R,2R)-6-fluoro-2-hydroxy-4-methyl-indan-1-yl)-4,5,6,7-tetrahydro-1H-pyrazolo[4,3-c]pyridin-3-yl]-benzonitrile]
0.568 µM | CC(=O)N1CCc2c(c(-c3ccc(F)cc3)nn2[C@@H]2c3cc(Cl)cc(F)c3C[C@H]2O)C1 [Example 11n, 1-[1-((1R,2R)-6-Chloro-4-fluoro-2-hydroxy-indan-1-yl)-3-(4-fluoro-phenyl)-1,4,6,7-tetrahydro-pyrazolo[4,3-c]pyridin-5-yl]-ethanone]
1.52 µM | CC(=O)N1CCc2c(c(-c3ccc(C)cc3)nn2[C@@H]2c3cc(F)cc(F)c3C[C@H]2O)C1 [Example 11x, 1-[1-((1R,2R)-4,6-Difluoro-2-hydroxy-indan-1-yl)-3-p-tolyl-1,4,6,7-tetrahydro-pyrazolo[4,3-c]pyridin-5-yl]-ethanone]
1.01 µM | CC(=O)N1CCc2c(c(-c3ccc(F)cc3)nn2[C@@H]2c3cc(Cl)c(Cl)cc3C[C@H]2O)C1 (racemic) [Example 11u, racemic 1-[1-((1R,2R)-5,6-Dichloro-2-hydroxy-indan-1-yl)-3-(4-fluoro-phenyl)-1,4,6,7-tetrahydro-pyrazolo[4,3-c]pyridin-5-yl]-ethanone]
0.18 µM | CCNC(=O)N1CCc2c(c(-c3cccc(C#N)c3)nn2[C@@H]2c3cc(Cl)cc(Cl)c3C[C@H]2O)C1 [Example 22a, 3-(3-Cyano-phenyl)-1-((1R,2R)-4,6-dichloro-2-hydroxy-indan-1-yl)-1,4,6,7-tetrahydro-pyrazolo[4,3-c]pyridine-5-carboxylic acid ethylamide]
0.26 µM | COC(=O)N1CCc2c(c(-c3cccc(C#N)c3)nn2[C@@H]2c3cc(F)cc(F)c3C[C@H]2O)C1 [Example 17a, 3-(3-Cyano-phenyl)-1-((1R,2R)-4,6-difluoro-2-hydroxy-indan-1-yl)-1,4,6,7-tetrahydro-pyrazolo[4,3-c]pyridine-5-carboxylic acid methyl ester]
0.27 µM | CC(=O)N1CCc2c(c(-c3ccc(F)c(C(F)(F)F)c3)nn2[C@@H]2c3cc(F)cc(F)c3C[C@H]2O)C1 [Example 11f, 1-[1-((1R,2R)-4,6-Difluoro-2-hydroxy-indan-1-yl)-3-(4-fluoro-3-trifluoromethyl-phenyl)-1,4,6,7-tetrahydro-pyrazolo[4,3-c]pyridin-5-yl]-ethanone]
0.804 µM | CC(=O)N1CCc2c(c(-c3ccc(F)cc3)nn2[C@@H]2c3cc(Cl)ccc3C[C@H]2O)C1 [Example 11s, 1-[1-((1R,2R)-6-Chloro-2-hydroxy-indan-1-yl)-3-(4-fluoro-phenyl)-1,4,6,7-tetrahydro-pyrazolo[4,3-c]pyridin-5-yl]-ethanone]
0.35 µM | CC(=O)N1CCc2c(c(-c3cccc(C#N)c3)nn2[C@@H]2c3cc(Cl)cc(Cl)c3C[C@H]2O)C1 [Example 11g, 3-[5-Acetyl-1-((1R,2R)-4,6-dichloro-2-hydroxy-indan-1-yl)-4,5,6,7-tetrahydro-1H-pyrazolo[4,3-c]pyridin-3-yl]-benzonitrile]
0.375 µM | CC(=O)N1CCc2c(c(-c3ccc(F)c(C(F)(F)F)c3)nn2[C@H]2c3cc(F)cc(F)c3C[C@]2(C)O)C1 (racemic) [Example 11i, racemic 1-[1-((1S,2S)-4,6-Difluoro-2-hydroxy-2-methyl-indan-1-yl)-3-(4-fluoro-3-trifluoromethyl-phenyl)-1,4,6,7-tetrahydro-pyrazolo[4,3-c]pyridin-5-yl]-ethanone]
0.37 µM | CC(=O)N1CCc2c(c(-c3cccc(C(F)(F)F)c3)nn2[C@H]2c3cc(F)cc(F)c3C[C@@H]2O)C1 [Example 11h, 1-[1-((1S,2S)-4,6-Difluoro-2-hydroxy-indan-1-yl)-3-(3-trifluoromethyl-phenyl)-1,4,6,7-tetrahydro-pyrazolo[4,3-c]pyridin-5-yl]-ethanone]
1.19 µM | CC(=O)N1CCc2c(c(-c3cccc(Cl)c3)nn2[C@@H]2c3cc(F)cc(F)c3C[C@H]2O)C1 [Example 11v, 1-[3-(3-Chloro-phenyl)-1-((1R,2R)-4,6-difluoro-2-hydroxy-indan-1-yl)-1,4,6,7-tetrahydro-pyrazolo[4,3-c]pyridin-5-yl]-ethanone]
8.19 µM | CC(C)N1CCc2c(c(-c3ccc(F)cc3)nn2[C@@H]2c3cc(F)cc(F)c3C[C@H]2O)C1 [Example 18b, (1R,2R)-4,6-Difluoro-1-[3-(4-fluoro-phenyl)-5-isopropyl-4,5,6,7-tetrahydro-pyrazolo[4,3-c]pyridin-1-yl]-indan-2-ol]
0.19 µM | CC(=O)N1CCc2c(c(-c3cccc(Cl)c3)nn2[C@H]2c3cc(F)cc(F)c3C[C@@H]2O)C1 [Example 11b, 1-[3-(3-Chloro-phenyl)-1-((1S,2S)-4,6-difluoro-2-hydroxy-indan-1-yl)-1,4,6,7-tetrahydro-pyrazolo[4,3-c]pyridin-5-yl]-ethanone]
1.92 µM | COc1cc(-c2nn([C@@H]3c4cc(F)cc(F)c4C[C@H]3O)c3c2CN(C(C)=O)CC3)ccc1F [Example 11y, 1-[1-((1R,2R)-4,6-Difluoro-2-hydroxy-indan-1-yl)-3-(4-fluoro-3-methoxy-phenyl)-1,4,6,7-tetrahydro-pyrazolo[4,3-c]pyridin-5-yl]-ethanone]

SMILES | IC50
CO[C@@H]1Cc2c(F)cc(F)cc2[C@H]1n1nc(-c2cccc(C#N)c2)c2c1CCN(C(C)=O)C2 [Example 16a, 3-[5-Acetyl-1-((1R,2R)-4,6-difluoro-2-methoxy-indan-1-yl)-4,5,6,7-tetrahydro-1H-pyrazolo[4,3-c]pyridin-3-yl]-benzonitrile] | 0.446 µM
